Assay in all cases: NCI tumour cell line growth inhibition, 48 h
For experiment [1], the system named is RPMI-8226 leukemia.
Experiment [2] has as its system CAKI-1 renal.
In experiment [3] the test system is EKVX NSCLC.
The test system of experiment [4] is 786-0 renal.
In experiment [5] the test system is SF-295 CNS.
The test system of experiment [6] is SNB-19 CNS.
For experiment [7], the system named is ACHN renal.
The test system of experiment [8] is A549 NSCLC.
Experiment [9] has as its system NCI-H23 lung.

This is an account of results in PubChem BioAssay (NCI).

Molecules are shown by their SMILES.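 Each compound was tested at five concentrations against cells in 96-well plates for 48 hours. The concentration for 50% growth inhibition is given as GI50. TGI denotes the concentration required for complete inhibition of growth.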

`C=C(CNCCO)[C@@H]1CC[C@]2(CO)CC[C@]3(C)[C@H](CC[C@@H]4[C@@]5(C)CCC(NCCc6ccc(O)cc6)C(C)(C)[C@@H]5CC[C@]43C)[C@@H]12` (some centres undefined): the GI50 in experiment [1] was 1.02 µM; in experiment [2], 1.62 µM; in experiment [3] it was 1.46 µM; in experiment [4], 0.202 µM; in [5] it was 1.51 µM; in [6], 1.6 µM. Besides, the results for the GI50 in experiment [7], in experiment [8] and in [9] were 1.69 µM, 1.43 µM and 1.77 µM, respectively. Besides, the TGI was 3.13 µM in experiment [1]; 3.33 µM in experiment [2]; 3.11 µM in experiment [3]; 0.523 µM in experiment [4]; 2.96 µM in experiment [5]; 3.03 µM in experiment [6]. In addition, the TGI in experiment [7] was determined as 3.08 µM; in experiment [8], 2.74 µM; in experiment [9], 3.45 µM.

Regarding `OC1CCC(C2C3CCCCC3C3CCCCC3C2C2CCC(O)CC2)CC1` (centres undefined), the TGI in experiment [1] was 59.1 µM; in experiment [2] it was 13 µM; in [3] it was above 100 µM; in experiment [4] it was above 100 µM; in experiment [5], 27.3 µM; in experiment [6], 32.2 µM. Also, the figures for the TGI in [7], in [8] and in [9] were 7.48 µM, above 100 µM and above 100 µM, respectively.

`COc1ccc([N+](=O)[O-])c2c(NCC(O)CO)ccnc12` (centres undefined): the TGI in experiment [1] was above 100 µM; in experiment [2], above 100 µM; in experiment [3] it was 82.3 µM; in experiment [4] it was above 100 µM; in experiment [5], above 100 µM; in [6], above 100 µM. Moreover, the TGI in [7] is above 100 µM; in [8], above 100 µM; in experiment [9], 40.4 µM.

Consider `Cc1ccc(S(=O)(=O)ON/N=C2/C3OC3[C@@H]3CCCC[C@H]23)cc1` (some centres undefined), for which the TGI in experiment [1], in experiment [2], in experiment [3], in experiment [4], in [5] and in experiment [6] was above 100 µM each time. For the same compound, the TGI in [7], in experiment [8] and in experiment [9] was above 100 µM in each case.

`c1c[nH]c(Cc2ncc(Cc3cnc[nH]3)[nH]2)n1`: the TGI in [1] is above 100 µM; in experiment [2], above 100 µM; in [3], above 100 µM; in experiment [4] it was 65.8 µM; in [5] it was above 100 µM; in experiment [6], 84.4 µM. Besides, the TGI in experiment [7] was 51.5 µM; in experiment [8], above 100 µM; in experiment [9] it was above 100 µM.

On to `OC1CCC(Oc2cccc3cnc(Nc4ccc5nc[nH]c5c4)nc23)CC1` (centres undefined), for which the GI50 is 0.219 µM in experiment [1]; 0.497 µM in experiment [2]; 0.487 µM in experiment [3]; 0.336 µM in experiment [4]; 0.429 µM in experiment [5]; 0.407 µM in experiment [6]. Besides, the GI50 is 0.313 µM in experiment [7], 0.404 µM in experiment [8] and 0.21 µM in [9]. Moreover, the TGI came out at 0.659 µM in experiment [1]; 21.5 µM in [2]; 10.8 µM in experiment [3]; 10.1 µM in experiment [4]; 12 µM in experiment [5]; 49.6 µM in experiment [6]. The TGI was above 100 µM in [7], 19.7 µM in experiment [8] and 1.63 µM in [9].

In the case of `C=C1C(=O)O[C@H]2[C@H]1CC/C(COC(=O)c1ccc(C(=O)O)s1)=C\CC[C@@]1(C)O[C@@H]21`, the GI50 was 1.97 µM in experiment [1]; 1.71 µM in [2]; 2.21 µM in experiment [3]; 1.54 µM in experiment [4]; 5.65 µM in [5]; 3.17 µM in experiment [6]. Besides, the results for the GI50 in experiment [7], in [8] and in [9] were 1.63 µM, 5.35 µM and 3.34 µM, respectively. In addition, the TGI is 5.98 µM in experiment [1]; 3.11 µM in [2]; 5.68 µM in [3]; 3.09 µM in [4]; 18.7 µM in experiment [5]; 11.6 µM in [6]. Besides, the TGI came out at 3.02 µM in [7], 18.4 µM in experiment [8] and 11.8 µM in experiment [9].

For `COC(=O)/C(=N/NC(C)(C)C)C(C(=O)C=C(C)C)C(=O)C(=O)Nc1ccc(Cl)cc1C` (centres undefined), the TGI in experiment [1], in [2], in experiment [3], in experiment [4], in experiment [5] and in experiment [6] was above 100 µM in each case. The TGI in experiment [7], in experiment [8] and in experiment [9] was above 100 µM in each case.

Turning to `O=c1c(OC/C(=N/O)c2ccccc2)c(-c2ccccc2)oc2ccccc12`, the GI50 in [1] is 7.07 µM; in [2] it was 9.52 µM; in experiment [3], 12.3 µM; in experiment [4] it was 19 µM; in [5] it was 11.2 µM; in [6] it was 15.9 µM. Further, the GI50 was 10.5 µM in [7], 30.3 µM in [8] and 18.1 µM in experiment [9]. Besides, the TGI in experiment [1] is 15.6 µM; in [2], 40.8 µM; in experiment [3] it was 30.1 µM; in [4], above 50 µM; in experiment [5] it was 23.2 µM; in [6], above 50 µM. Also, the values for the TGI in [7], in [8] and in [9] were 28 µM, above 50 µM and above 50 µM, respectively.

With `CCN(CC)CC(C)Nc1ccc(C)c2sc3ccccc3c(=O)c12` (centres undefined), the GI50 was 2.32 µM in experiment [1]; 3.04 µM in [2]; 7.86 µM in experiment [3]; 3.14 µM in experiment [4]; 2.66 µM in experiment [5]; 6.44 µM in experiment [6]. In addition, the GI50 in experiment [7] was 3.88 µM; in experiment [8], 3.02 µM; in experiment [9] it was 5.94 µM. Besides, the TGI in [1] was determined as 6.81 µM; in experiment [2], 14.1 µM; in [3], 24.2 µM; in experiment [4] it was 11.2 µM; in experiment [5], 8.56 µM; in experiment [6], 19.5 µM. The TGI in [7] amounted to 15.1 µM; in [8], 16.8 µM; in [9] it was 19.8 µM.

For the compound `CCCN(CCC)c1c([N+](=O)[O-])cc(S(N)(=O)=O)cc1[N+](=O)[O-]`, the TGI stood at 76.4 µM in [1]; 26.4 µM in [2]; 37.5 µM in experiment [3]; 30.4 µM in [4]; 32.3 µM in experiment [5]; 41.3 µM in [6]. Further, the TGI in [7] amounted to 31.8 µM; in experiment [8], 32.8 µM; in experiment [9], 32.3 µM.
